What was measured:
Escherichia coli [1] = experiment: drug sensitivity test of the pathogenic bacterium from blood culture; assay type: cell-based; conditions: isolate from blood specimen sampled before antibiotic treatment
Description: (§1) According to Step 1 to Step 4 of Example 1, a pathogenic bacterium rapid quantification test using sepsis patient's specimens (EDTA blood collection tube, 2 mL) was carried out. […] Blood was sampled before treatment with an antibiotic (pretreatment), and 24 hours (after 24 hrs.) and 72 hours (after 72 hrs.) after administration of the antibiotic. At the three points, a pathogenic bacterium rapid quantification test was carried out together with measurement of body temperature, white blood cell count, CRP, presepsin and IL-6. Furthermore, a blood specimen sampled before the antibiotic treatment was subjected to a blood culture method to identify a pathogenic bacterium and subjected to a drug sensitivity test. General information about individual cases is as follows.
According to Step 1 to Step 5 of Example 1, a pathogenic bacterium rapid identification/quantification test using sepsis patient's specimens (EDTA blood collection tube, 2 mL) was carried out. […] Blood was sampled before treatment with an antibiotic (pretreatment), and 24 hours (after 24 hrs.) and 72 hours (after 72 hrs.) after administration of the antibiotic. At the three points, a pathogenic bacterium rapid identification/quantification test was carried out together with measurement of body temperature, white blood cell count, CRP, presepsin and IL-6. […]

Escherichia coli [2] = experiment: Case 4: pathogen identification/quantification and biomarkers in blood before/after antibiotic treatment; assay type: in vivo, human (sepsis patient); conditions: for BT (body temperature): pretreatment 37.0; for IL-6: pretreatment 122; for CRP: pretreatment 185.9; for WBC: pretreatment 285.6; for Presepsin: pretreatment 1298; for Pathogen (Ave): pretreatment 1314
Description: (§2) First, bacterial cells were collected from a blood specimen by centrifuging the whole blood at a low rate of 100×g for 5 minutes to separate blood cells, centrifuging the resultant supernatant (containing buffy coat) at a high rate of 20,000×g for 10 minutes to obtain a pellet.
(§3) Using DNA of a pathogenic bacterium taken from the blood specimen according to the method of Step 1 as a template, nested PCR (1st PCR: 30 cycle→100 double dilution→2nd PCR: 30 to 35 cycles) is carried out. The bacterial cells in patient specimens vary in a wide range from very small to large number. Since it is difficult to accurately determine the bacterial number in a single cycle of PCR, nested PCR methods are used in combination.
(§4) Subsequently, using pathogenic bacterium DNA of Step 1 as a template, nested PCR was carried out together with a quantification control in the conditions described in Step 2. In the 1st PCR and 2nd PCR for quantification, the following bacterial universal primer (primer for detecting almost all bacteria) was used. The target region of the bacterial universal primer is a bacterial conserved region (base sequence region common in almost all bacteria) of a 16S ribosomal RNA gene. A predetermined bacterium is quantified by a bacterial species-specific primer; however, a pathogenic bacterium is not identified in the early stage of sepsis. Because of this, a bacterial species-specific primer cannot be used. Accordingly, unless a bacterial universal primer is used, an unidentified bacterium cannot be detected.
(§5) As mentioned above, E. coli DNA samples of three different concentrations and of a known bacterial number were used as quantification controls. Based on the data of three quantification controls different in concentration, a calibration curve was prepared. Based on bacterial DNA extracted from a patient specimen, the number of pathogenic bacterial cells was determined. Since the number of bacterial cells was obtained as an E. coli cell-number equivalent used as a quantification control, the number of bacterial cells in a specimen can be more easily, rapidly and accurately determined.
(§6) For the reason, it is necessary to make a correction based on the operon copy number per bacterium species in order to more accurately determine bacterial number. Since identification and qualification of a pathogenic bacterium are carried out concurrently in Step 3 and Step 4, the number of pathogenic bacterial cells can be corrected based on 16S ribosomal RNA operon copy number of the bacterium identified to computationally obtain the correct number of bacterial cells.
as §1, with “Step 5” for “Step 4”, “rapid identification/quantification” for “rapid quantification”
Case 4: • person, sepsis associated with urinary tract infection • Tm mapping method: Escherichia coli (Dist. value=0.29) • blood culture/urine culture: Escherichia coli • antibiotics substance: meropenem (sensitive)

Escherichia coli [3] = experiment: Case 1: pathogen count (nested PCR) and biomarkers in blood before/after antibiotic treatment; assay type: in vivo, human (sepsis patient); conditions: for BT (body temperature): pretreatment 37.0; for IL-6: pretreatment 122; for CRP: pretreatment 185.9; for WBC: pretreatment 285.6; for Presepsin: pretreatment 1298; for Pathogen (Ave): pretreatment 1314
Description: as §2, §3, §4, §5, §1
Case 1: • person, sepsis associated with urinary tract infection • blood culture/urine culture: Escherichia coli • antibiotic substance: meropenem (sensitive)

Enterobacter aerogenes [4] = experiment: drug sensitivity test of the pathogenic bacterium from blood culture; assay type: cell-based; conditions: Case 7, isolate from blood specimen sampled before antibiotic treatment
Description: as §1, with “Step 5” for “Step 4”, “rapid identification/quantification” for “rapid quantification”

Escherichia coli [5] = experiment: Case 5: pathogen identification/quantification and biomarkers in blood before/after antibiotic treatment; assay type: in vivo, human (sepsis patient); conditions: for CRP: pretreatment 1.1; for BT (body temperature): pretreatment 39.6; for WBC: pretreatment 168.3; for Presepsin: pretreatment 343; for IL-6: pretreatment 678; for Pathogen (Ave): pretreatment 3600
Description: as §2, §3, §4
(§7) As mentioned above, E. coli DNA samples of three different concentrations and of a known bacterial number were used as quantification controls. Based on the data of three quantification controls different in concentration, a calibration curve was prepared. Based on bacterial DNA extracted from a patient specimen, the number of pathogenic bacterial cells was determined.
as §6
as §1, with “Step 5” for “Step 4”, “rapid identification/quantification” for “rapid quantification”

Escherichia coli [6] = experiment: Case 3: pathogen count (nested PCR) and biomarkers in blood before/after antibiotic treatment; assay type: in vivo, human (sepsis patient); conditions: for CRP: pretreatment 1.1; for BT (body temperature): pretreatment 39.6; for WBC: pretreatment 168.3; for Presepsin: pretreatment 343; for IL-6: pretreatment 678; for Pathogen (Ave): pretreatment 3600
Description: as §2, §3, §4, §5, §1
Case 3: • person, sepsis associated with urinary tract infection • blood culture/urine culture: Escherichia coli • antibiotics substance: tazobactam/piperacillin (sensitive)

Enterobacter aerogenes [7] = experiment: Case 7: pathogen identification/quantification and biomarkers in blood before/after antibiotic treatment; assay type: in vivo, human (sepsis patient); conditions: for BT (body temperature): pretreatment 38.8; for WBC: pretreatment 59.4; for CRP: pretreatment 72.3; for Presepsin: pretreatment 1322; for Pathogen (Ave): pretreatment 41083; for IL-6: pretreatment 238000
Description: as §2, §3, §4, §7, §6
as §1, with “Step 5” for “Step 4”, “rapid identification/quantification” for “rapid quantification”

[8] = system: Streptococcus dysgalactiae; experiment: Case 6: pathogen identification/quantification and biomarkers in blood before/after antibiotic treatment; assay type: in vivo, human (sepsis patient); conditions: for BT (body temperature): pretreatment 39.7; for WBC: pretreatment 89.5; for IL-6: pretreatment 115; for CRP: pretreatment 136.1; for Presepsin: pretreatment 1373; for Pathogen (Ave): pretreatment 2651
Description: as §2, §3, §4, §7, §6
as §1, with “Step 5” for “Step 4”, “rapid identification/quantification” for “rapid quantification”

S. pneumoniae = experiment: drug sensitivity test of the pathogenic bacterium from blood culture; assay type: cell-based, Streptococcus pneumoniae; conditions: Case 2, isolate from blood specimen sampled before antibiotic treatment
Description: as §1

H. influenzae = experiment: as above; assay type: cell-based, Haemophilus influenzae; conditions: Case 2, isolate from blood specimen sampled before antibiotic treatment
Description: as §1

[9] = system: Klebsiella oxytoca, Haemophilus influenzae, Streptococcus pneumoniae; experiment: Case 2: pathogen count (nested PCR) and biomarkers in blood before/after antibiotic treatment; assay type: in vivo, human (sepsis patient); conditions: for BT (body temperature): pretreatment 39.2; for WBC: pretreatment 108.8; for CRP: pretreatment 150.3; for Presepsin: pretreatment 5379; for IL-6: pretreatment 122000; for Pathogen (Ave): pretreatment 175270
Description: as §2, §3, §4, §5, §1

K. oxytoca = experiment: drug sensitivity test of the pathogenic bacterium from blood culture; assay type: cell-based, Klebsiella oxytoca; conditions: Case 2, isolate from blood specimen sampled before antibiotic treatment
Description: as §1

## C[C@@H](O)[C@H]1C(=O)N2C(C(=O)O)=C(S[C@@H]3CN[C@H](C(=O)N(C)C)C3)[C@H](C)[C@H]12 [meropenem]
Escherichia coli [1]
  drug sensitivity: sensitive
Escherichia coli [2]; Case 4, 24 h after antibiotic
  BT (body temperature): 37.9 °C
  IL-6: 85.8 pg/mL
  CRP: 223.1 mg/L
  WBC: 301.4 × 100/μL
  Presepsin: 1729 ng/mL
  Pathogen (Ave): 248 cells/ml
Escherichia coli [2]; Case 4, 72 h after antibiotic
  BT (body temperature): 37.2 °C
  IL-6: 20.7 pg/mL
  CRP: 86.4 mg/L
  WBC: 98.7 × 100/μL
  Presepsin: 1138 ng/mL
  Pathogen (Ave): 0 cells/ml
Escherichia coli [3]; Case 1, 24 h after antibiotic
  BT (body temperature): 37.9 °C
  IL-6: 85.8 pg/mL
  CRP: 223.1 mg/L
  WBC: 301.4 × 100/μL
  Presepsin: 1729 ng/mL
  Pathogen (Ave): 248 cells/ml
Escherichia coli [3]; Case 1, 72 h after antibiotic
  BT (body temperature): 37.2 °C
  IL-6: 20.7 pg/mL
  CRP: 86.4 mg/L
  WBC: 98.7 × 100/μL
  Presepsin: 1138 ng/mL
  Pathogen (Ave): 0 cells/ml

## tazobactam/piperacillin
Enterobacter aerogenes [4]
  drug sensitivity: sensitive
Escherichia coli [5]; Case 5, 24 h after antibiotic
  CRP: 9.3 mg/L
  BT (body temperature): 36.6 °C
  WBC: 61.4 × 100/μL
  Presepsin: 267 ng/mL
  IL-6: 5 pg/mL
  Pathogen (Ave): 2102 cells/ml
Escherichia coli [5]; Case 5, 72 h after antibiotic
  CRP: 2.9 mg/L
  BT (body temperature): 37.2 °C
  WBC: 49.2 × 100/μL
  Presepsin: 501 ng/mL
  IL-6: 6.3 pg/mL
  Pathogen (Ave): 2 cells/ml
Escherichia coli [6]; Case 3, 24 h after antibiotic
  CRP: 9.3 mg/L
  BT (body temperature): 36.6 °C
  WBC: 61.4 × 100/μL
  Presepsin: 267 ng/mL
  IL-6: 5 pg/mL
  Pathogen (Ave): 2102 cells/ml
Escherichia coli [6]; Case 3, 72 h after antibiotic
  CRP: 2.9 mg/L
  BT (body temperature): 37.2 °C
  WBC: 49.2 × 100/μL
  Presepsin: 501 ng/mL
  IL-6: 6.3 pg/mL
  Pathogen (Ave): 2 cells/ml
Enterobacter aerogenes [7]; Case 7, 24 h after antibiotic
  BT (body temperature): 38.4 °C
  WBC: 258.5 × 100/μL
  CRP: 107 mg/L
  Presepsin: 1516 ng/mL
  Pathogen (Ave): 19156 cells/ml
  IL-6: 41700 pg/mL
Enterobacter aerogenes [7]; Case 7, 72 h after antibiotic
  BT (body temperature): 36.4 °C
  WBC: 198.2 × 100/μL
  CRP: 241.4 mg/L
  Presepsin: 2473 ng/mL
  Pathogen (Ave): 59 cells/ml
  IL-6: 176 pg/mL
Escherichia coli [1]
  drug sensitivity: sensitive
[8]; Case 6, 24 h after antibiotic
  BT (body temperature): 37.0 °C
  WBC: 77.3 × 100/μL
  IL-6: 85.3 pg/mL
  CRP: 139.8 mg/L
  Presepsin: 854 ng/mL
  Pathogen (Ave): 308 cells/ml
[8]; Case 6, 72 h after antibiotic
  BT (body temperature): 37.2 °C
  WBC: 54.1 × 100/μL
  IL-6: 59.4 pg/mL
  CRP: 43.2 mg/L
  Presepsin: 708 ng/mL
  Pathogen (Ave): 20 cells/ml

## CO/N=C(\C(=O)N[C@@H]1C(=O)N2C(C(=O)[O-])=C(C[N+]3(C)CCCC3)CS[C@H]12)c1csc(N)n1 [cefepim]
S. pneumoniae
  drug sensitivity: medium-level sensitivity
H. influenzae
  drug sensitivity: sensitive
[9]; Case 2, 24 h after antibiotic
  BT (body temperature): 36.4 °C
  WBC: 418.1 × 100/μL
  CRP: 240.0 mg/L
  Presepsin: 6202 ng/mL
  IL-6: 7400 pg/mL
  Pathogen (Ave): 31453 cells/ml
[9]; Case 2, 72 h after antibiotic
  BT (body temperature): 36.3 °C
  WBC: 348.7 × 100/μL
  CRP: 145.5 mg/L
  Presepsin: 6060 ng/mL
  IL-6: 168 pg/mL
  Pathogen (Ave): 2066 cells/ml
K. oxytoca
  drug sensitivity: sensitive

Reference: US20210102239A1, “METHOD FOR DETERMINING BACTERIAL NUMBER IN SPECIMEN” (MITSUI CHEMICALS, INC., priority 2017, published 2021)
